“And” between values parts separate entries of the source, which are not always exact repeats. Identical values can stand only once.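 Test compounds were applied to cells in 96-well plates for 48 hours at 5 doses. GI50 is the concentration that inhibits growth by half. Definition used: TGI = concentration required for complete inhibition of growth.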
Tested on: DU-145 prostate
Assay: inhibition of tumour cell growth, NCI panel, 48 h

In the case of COC1/C=C/OC2(C)Oc3c(C)c(O)c4c(O)c(c(/C=N/Nc5ccc([N+](=O)[O-])cc5[N+](=O)[O-])c(O)c4c3C2=O)NC(=O)C(C)=C/C=C/C(C)C(O)C(C)C(O)C(C)C(OC(C)=O)C1C (stereo not drawn), the GI50 is reported as 2.55 µM.

First: COC1/C=C/OC2(C)Oc3c(C)c(O)c4c(O)c(c(/C=N/Nc5ccc([N+](=O)[O-])cc5[N+](=O)[O-])c(O)c4c3C2=O)NC(=O)C(C)=C/C=C/C(C)C(O)C(C)C(O)C(C)C(OC(C)=O)C1C (stereo not drawn)
Second: Fc1ccc(NC(=S)SCc2ccc3c(c2)OCO3)cc1F
The TGI of the first is lower: 9.32 µM for the first, > 100 µM for the second.

Tested on: BT-549 breast
Assay: inhibition of tumour cell growth, NCI panel, 48 h

COc1cc2c(c3oc4c(O)cccc4c(=O)c13)CC(C(C)(O)CO)O2 (stereo not drawn) and C=CCOc1ccc2c(C)cc(=O)oc2c1C cannot be ordered by TGI: > 100 µM for the first, > 100 µM for the second.

C=CCO[C@H]1CO[C@H]2[C@@H]1OC[C@@H]2Oc1ccc(Nc2ccnc(Nc3ccc(O[C@H]4CO[C@H]5[C@@H]4OC[C@@H]5OCC=C)c(Cl)c3)n2)cc1Cl and CCN1CCN(Cc2ccc(NC(=O)c3cccc(C#Cc4cccc5[nH]nc(N)c45)c3)cc2C(F)(F)F)CC1 are within 1.5-fold of each other in TGI: 3.11 µM for the first, 2.41 µM for the second.

Compared with O=C(CCNC12CC3CC(CC(C3)C1)C2)c1ccccc1, COC(=O)CC[N+]1=CCC(c2ccccc2)(c2ccccc2)O1 is higher in TGI: 85.3 µM for the first, > 100 µM for the second.

First: CC(C)=CCC\C(C)=C/C=C/C(C)=C\C=C\C(C)=C/C=C/C=C(C)\C=C\C=C(C)/C=C/C=C(/C)CCC=C(C)C
Second: OCCN(CCO)c1ncnc2c1ncn2Cc1ccc(CCl)cc1
The TGI of the first is higher: > 100 µM for the first, 24.6 µM for the second.

Molecule Fc1ccc(NC(=S)SCc2ccc3c(c2)OCO3)cc1F has a TGI of 51.4 µM.

C=CCO[C@H]1CO[C@H]2[C@@H]1OC[C@@H]2Oc1ccc(Nc2ccnc(Nc3ccc(O[C@H]4CO[C@H]5[C@@H]4OC[C@@H]5OCC=C)c(Cl)c3)n2)cc1Cl and CCN1CCN(Cc2ccc(NC(=O)c3cccc(C#Cc4cccc5[nH]nc(N)c45)c3)cc2C(F)(F)F)CC1 are within 1.5-fold of each other in GI50: 1.6 µM for the first, 1.1 µM for the second.

OCCN(CCO)c1ncnc2c1ncn2Cc1ccc(CCl)cc1 was tested, and the GI50 was 11.7 µM.

Tested on: SK-OV-3 ovarian
Assay: inhibition of tumour cell growth, NCI panel, 48 h

Cc1c(C(=O)C/C(=N/NC(=O)c2ccccc2O)C(=O)Nc2ccccc2C(C)C)[n+](=O)c2ccccc2n1[O-] and COC(=O)c1ccccc1NC(=O)C(=O)Cc1nc2c3c(ccc2[nH]c1=O)C(=O)c1ccccc1C3=O cannot be ordered by TGI: > 100 µM for the first, > 100 µM for the second.

CCCCCCCCCCCC(=O)OCCOCCOCCOCCOCCOCc1ccccc1 and COC(=O)CC[N+]1=CCC(c2ccccc2)(c2ccccc2)O1 cannot be ordered by TGI: > 100 µM for the first, > 100 µM for the second.

CCCC1C(=O)CCc2c(OC)ccc(OC)c21 (stereo not drawn) and COC(=O)C1(C(C)C)CCc2c(OC)ccc(OC)c2C1=O (stereo not drawn) cannot be ordered by TGI: > 100 µM for the first, > 100 µM for the second.

O=C(CCc1nc(=S)[nH][nH]1)Nc1cc(Cl)c(Cl)cc1Cl and O=C(CCc1nc(=S)[nH][nH]1)Nc1ccc(Cl)c(Cl)c1 cannot be ordered by TGI: > 100 µM for the first, > 100 µM for the second.

O=C(Nc1nc2ccc([N+](=O)[O-])cc2s1)C(=O)C(C1OC(=O)c2ccccc21)[N+](=O)[O-] (stereo not drawn) and O=C(CC(=O)c1cccc2ccccc12)C(=O)Nc1ccc(Cl)cc1 cannot be ordered by TGI: > 100 µM for the first, > 100 µM for the second.

Cc1ccc(Cl)c2c(N=Nc3ccccc3[N+](=O)[O-])c(O)[nH]c12 and Cc1cc(N(CCC#N)CCC#N)ccc1N=Nc1ccc(S(N)(=O)=O)cc1 cannot be ordered by TGI: > 100 µM for the first, > 100 µM for the second.

Going from COc1cc2cc(OC)c3cc4c(cc3c2c(OC)c1OC)OCO4 to C=CCO[C@H]1CO[C@H]2[C@@H]1OC[C@@H]2Oc1ccc(Nc2ccnc(Nc3ccc(O[C@H]4CO[C@H]5[C@@H]4OC[C@@H]5OCC=C)c(Cl)c3)n2)cc1Cl, the TGI falls from > 100 µM to 31.2 µM.

CC1(C(=O)O)CCC[C@@]2(C)C1CC[C@@]1(C)c3cocc3CCC21 (stereo partly drawn) and CCOC(=O)CCC1(C(=O)OCC)CCCCC1=O (stereo not drawn) cannot be ordered by TGI: > 100 µM for the first, > 100 µM for the second.

CCn1c(C)nn2c(=O)c3ccccc3nc2c1=O and Cc1nc2c(ccc3ncccc32)[nH]1 cannot be ordered by TGI: > 100 µM for the first, > 100 µM for the second.

CCN(CC)CCSc1c2ccccc2nc2cc(NCC(=O)Nc3ccccc3-c3ccccc3NC(=O)CNc3ccc4c(SCCN(CC)CC)c5ccccc5nc4c3)ccc12 and CC(=O)[CH-]C(=O)c1ccccc1.CC(=O)[CH-]C(=O)c1ccccc1.CN(C)c1ccc([O-])cc1.CN(C)c1ccc([O-])cc1.Cl.[Ti+4] cannot be ordered by TGI: > 100 µM for the first, > 31.6 µM for the second.

Compared with CCN1CCN(Cc2ccc(NC(=O)c3cccc(C#Cc4cccc5[nH]nc(N)c45)c3)cc2C(F)(F)F)CC1, CCC[CH2][Sn]([CH2]CCC)([S]c1cccc2cccnc12)[S]c1cccc2cccnc12 is 1.9-fold lower in TGI: 2.2 µM for the first, 1.18 µM for the second.

CC(C)=CCC\C(C)=C/C=C/C(C)=C\C=C\C(C)=C/C=C/C=C(C)\C=C\C=C(C)/C=C/C=C(/C)CCC=C(C)C and OCC1=CC(NC2CC(CO)C(O)C(O)C2O)C(O)C(O)C1O (stereo not drawn) cannot be ordered by TGI: > 100 µM for the first, > 100 µM for the second.

CC1(C)C(=O)/C=C\C(=O)C(C)(C)C2=CC=C(O2)C(C)(C)C(=O)/C=C\C(=O)C(C)(C)C2=CC=C1O2 and CN(C)C(=S)N=C(Nc1ccccc1)Nc1ccccc1 cannot be ordered by TGI: > 100 µM for the first, > 100 µM for the second.

With NC(=O)NO.O.O.O.O.O.O.O.O.O.O.O.[Ge].[Ge].[Ge].[Ge].[Ge].[O]=[Ge].[O]=[Ge].[O]=[Ge].[O]=[Ge].[O]=[Ge][OH] the TGI was > 100 µM.

Going from C=CCO[C@H]1CO[C@H]2[C@@H]1OC[C@@H]2Oc1ccc(Nc2ccnc(Nc3ccc(O[C@H]4CO[C@H]5[C@@H]4OC[C@@H]5OCC=C)c(Cl)c3)n2)cc1Cl to CCN1CCN(Cc2ccc(NC(=O)c3cccc(C#Cc4cccc5[nH]nc(N)c45)c3)cc2C(F)(F)F)CC1, the GI50 falls from 16.8 µM to 0.802 µM (21-fold).

Compared with CCCCCCCCCCCCCC(=O)OC(/C=C/C(C)C)C(O)C(O)C(OC)C(=O)NC1CCCCN(C)C1=O (stereo not drawn), CC(=O)[CH-]C(=O)c1ccccc1.CC(=O)[CH-]C(=O)c1ccccc1.CN(C)c1ccc([O-])cc1.CN(C)c1ccc([O-])cc1.Cl.[Ti+4] is lower in GI50: > 49 µM for the first, 17.1 µM for the second.

Work on CCC[CH2][Sn]([CH2]CCC)([S]c1cccc2cccnc12)[S]c1cccc2cccnc12 yielded a GI50 of 0.324 µM.

In the case of CCCCCCCCCCCCCC(=O)OC(/C=C/C(C)C)C(O)C(O)C(OC)C(=O)NC1CCCCN(C)C1=O (stereo not drawn), the TGI is reported as 11.5 µM and > 49 µM.

Reference: PubChem BioAssay (NCI)
